Data taken from EP4692089A1, “NITROGEN-CONTAINING HETEROCYCLIC COMPOUND AS AAK1 INHIBITOR” (Alicorn Pharmaceutical Co., Ltd., priority 2023, dated 2024).

Tests used:
AAK1 (30-330) protein = biological target: T1, AAK1 (30-330) protein (Homo sapiens, UniProt Q2M2I8); assay: CETSA test of binding ability to AAK1 protein (Western blot)
T1 construct: (His)6x (N); TEV protease cleavage site (N); made in house; host or cells: Escherichia coli BL21(DE3)
Protocol: Experimental objective: To detect the binding ability of compounds to AAK1 protein by means of a CETSA experiment.
Background principle: The CETSA experiment is a molecular detection means for measuring the affinity between drugs and target proteins. […] When a candidate drug is co-incubated with a target protein, if the candidate drug is an inhibitor of AAK1, it can bind to AAK1. […] On the contrary, the stability of the AAK1 protein after heating will be poorer, and the amount of the detected protein will be lower. In this way, the binding ability of the drug to the target protein can be evaluated, which is used for the screening of AAK1 protein inhibitors.
Expression of AAK1 (30-330) protein: The AAK1 sequence (residues 30-330) was cloned into the pET24N vector with an N-terminal (His)6x tag and a tobacco etch virus (TEV) protease cleavage site. The constructed vector was transformed into Escherichia coli BL21(DE3). When the bacteria were cultured with shaking to reach an OD value of 0.6, 1 mM IPTG was added. […] The bacterial cells were collected and subjected to ultrasonic disruption. The supernatant was obtained by centrifugation, and the protein was purified using Ni-NTA. After dialysis, the concentration and purity of the protein were determined.
CETSA sample preparation: Samples were incubated with candidate drugs, control drugs, and control reagents separately for 30 minutes. Each group of samples was heated at approximately 10 pre-set temperature points. After being returned to room temperature, the samples were centrifuged at 20000 g, and the supernatants were collected. Protein samples were denatured by heating at 100°C for 10 minutes with a sample buffer. After the samples were returned to room temperature, Western blot detection was performed on them; the protein loading amount was controlled at 20 µg. […] The same operations were followed, and Western blot detection was conducted. Protein electrophoresis: The voltage for the stacking gel was set at 60 V, and that for the separating gel was set at 120 V. After electrophoresis, electrotransfer was initiated. Electrotransfer conditions were set at 250 mA for 2 h. Blocking with 5% BSA was performed for 1 h. A specific primary antibody was added, and incubation was carried out overnight at 4°C on a shaker. Washing with TBST was conducted 4 times, with 2.5 minutes each time. A secondary antibody was incubated on a shaker at room temperature for 1 h. Washing with TBST was conducted 4 times, with 2.5 minutes each time. ECL was used for development to detect the expression levels of AAK1 protein in different groups and at each temperature point. Western blot bands were processed and converted using Image J and GraphPad software to calculate EC50.

[1] = Pharmacokinetic test in SD rats
Protocol: Experimental objective: The objective of this experimental example is to test the pharmacokinetic profile of compounds in SD rats.
Route of administration: The animals were weighed before administration, and the dose was calculated based on their body weight. Administration was performed via intravenous injection and oral gavage.
Blood collection time points: After administration, for IV group: 0.083 h, 0.25 h, 0.5 h, 1 h, 2 h, 4 h, 8 h, and 24 h; for PO group: 0.25 h, 0.5 h, 1 h, 2 h, 4 h, 6 h, 8 h, and 24 h. Blood was collected via the jugular vein, with approximately 0.2 mL collected for each sample. The blood samples were anticoagulated with K2-EDTA and placed on ice after collection.
Plasma sample processing: After collection, the blood samples were placed on ice and centrifuged within 1 hour to separate plasma (centrifugation conditions: 6800g, 6 minutes, 2-8°C). The plasma samples were stored in a -80°C refrigerator before analysis.
Result analysis: Pharmacokinetic parameters were calculated using Phoenix WinNonlin 7.0 based on the plasma concentration data at different time points.

[2] = male, SD, rat, plasma, po, 3 mg/kg

T1 sequence (Q2M2I8 30-330): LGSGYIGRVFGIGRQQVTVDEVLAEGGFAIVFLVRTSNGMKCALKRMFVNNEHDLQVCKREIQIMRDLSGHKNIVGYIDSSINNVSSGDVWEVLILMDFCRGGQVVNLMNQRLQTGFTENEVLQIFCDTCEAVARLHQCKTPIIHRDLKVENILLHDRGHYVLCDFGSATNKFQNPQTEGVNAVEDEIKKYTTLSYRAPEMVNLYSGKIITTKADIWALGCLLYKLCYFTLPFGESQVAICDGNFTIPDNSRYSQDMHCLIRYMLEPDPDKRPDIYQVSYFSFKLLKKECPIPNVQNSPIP

For `CC(C)C[C@](C)(N)COc1ccc(-c2c[nH]c3ncc(F)cc23)nc1C(F)F` [Compound 26, (S)-1-{[2-(difluoromethyl)-6-(5-fluoro-1H-pyrrolo[2,3-b]pyridin-3-yl)pyridin-3-yl]oxy}-2,4-dimethylpentan-2-amine], the EC50 (AAK1 (30-330) protein) was 10 to 100 nM, the “in vivo exposure compared with the positive control” value ([1]; SD rats, versus BMS-986176) was “approximately four times” and the “peak concentration (Cmax) compared with the positive control” value ([1]; SD rats, versus BMS-986176) was “approximately four times”. For the same compound, the AUC(0-inf) [1, 2] was 4130 ng·h/mL, the AUC(0-t) [1, 2] was 4010 ng·h/mL and the Cmax [1, 2] was 325 ng/mL. It also gave an MRT inf [1, 2] of 10.9 h, an MRT last [1, 2] of 8.09 h and a Tmax [1, 2] of 3.1 h. It also gave a half-life [1, 2] of 419 min.
